# Like-named read-outs stand apart in the source and are kept apart here.
# What was measured:
# TcrNT2 [1] = target: T1, TcrNT2 (Trypanosoma cruzi, UniProt Q4DHG0); test: Transport of [^3H]-thymidine by TcrNT2 expressed in L. mexicana Cas9^ΔNT1 (Km, inhibition); type: cell-based; conditions: for δ(ΔG°), pairwise comparison with uridine: pairwise comparison vs. uridine; for δ(ΔG°) with respect to ΔG° of thymidine: change in ΔG° relative to thymidine; for δ(ΔG°), pairwise comparison with 2′-deoxyuridine: pairwise comparison vs. 2′-deoxyuridine
# Description: These values can be used to calculate the Gibbs free energy of interaction ΔG°, but these experiments cannot distinguish between the test compound being transported or merely binding to the transporter and inhibiting the transit of the [^3H]-thymidine.
# Transport assays were conducted with radiolabeled nucleosides [methyl-^3H]-thymidine (20 Ci/mmol; PerkinElmer (Waltham, MA, USA)) and [2,8-^3H]-adenosine (40 Ci/mmol; American Radiolabeled Chemicals (ARC, St-Louis, MO, USA)). Cells were harvested from mid-log phase cultures by centrifugation and washed into an assay buffer (AB) as described, at a density of 1 × 10^8 cells mL^−1. Transport assays were then performed exactly as described previously, using an oil-stop protocol. Briefly, 100 µL of cell suspension (10^7 cells) was mixed with 100 µL of [^3H]-substrate at 2 × final concentration and incubated for a pre-set time prior to the addition of 800 µL of ice-cold AB containing a saturating concentration of unlabeled permeant (usually 1 or 2.5 mM) and immediate centrifugation through an oil layer to separate cells from extracellular radiolabel. The 100 µL of [^3H]-substrate could also contain unlabeled substrate or an inhibitor at 2 × concentration, as appropriate. Next, the microfuge tubes were flash frozen in liquid nitrogen; the tips with the cell pellets cut off and collected in scintillation tubes. Cells were solubilized by incubation in 2% SDS under gentle shaking on a rocking platform prior to the addition of scintillation fluid (Scintilogic U, Lablogic, Sheffield, UK). The tubes stored in the dark overnight before counting in a 300SL Hidex Scintillation Counter (Lablogic).
# Michaelis-Menten constants (Km) were calculated by plotting transport rates of [^3H]-substrate against the concentration, using the Michaelis-Menten equation V0 = Vmax([substrate]/([substrate] + Km)) and non-linear regression in GraphPad Prism 8. Inhibition constants (Ki) were calculated using the Cheng-Prusoff equation: Ki = IC50/(1 + (L/Km)), where L represents the radiolabel concentration. The IC50 was obtained by a non-linear regression of the inhibition curve of transport rate versus inhibitor concentration, using an equation for a sigmoid curve with variable slope (GraphPad Prism 8). The Gibbs free energy ΔG° was obtained using the equation ΔG° = −RTln(Ki), in which R is the gas constant and T is the absolute temperature. As discussed previously, these equations apply to competitive rather than non-competitive inhibition. Given that only close analogues of the substrate were used as potential inhibitors and that Hill slopes were consistently close to −1, it is very likely that inhibition was indeed competitive.
# [2] = test system: L. mexicana Cas9^ΔNT1+TcrNT2 promastigotes; test: Alamar blue drug sensitivity assay, L. mexicana Cas9^ΔNT1+TcrNT2 promastigotes; type: cell-based, Leishmania mexicana; conditions: Cas9^ΔNT1+TcrNT2 in comparison to L. mexicana Cas9^ΔNT1
# Description: (§1) We used L. mexicana promastigotes of the Cas9 strain developed by Beneke at al. to generate the ΔNT1 strain, and from there the Cas9^ΔNT1+TcrNT2 (see below); The original Cas9 strain was generously donated by Prof. Eva Gluenz (University of Bern, Switzerland). All strains in standard HOMEM (GIBCO, Life Technologies, Paisley, UK) supplemented with 10% heat-inactivated fetal bovine serum (FBS; PAA Laboratories, Linz, Austria) and 1% of a penicillin–streptomycin solution (10,000 U mL^−1 each; Life Technologies) at 25 °C, as described.
# (§2) The Alamar blue assay (resazurin sodium salt) was used to determine the drug sensitivity of the L. mexicana promastigotes in vitro. The assay is based on the reduction of resazurin sodium salt (blue and non-fluorescent) to resorufin (pink color and fluorescent) by live cells. HOMEM medium with 10% FBS (100 μL) was added to all wells of a white 96-well plate apart from the first well. 200 μL of a known concentration of test compounds was diluted in HOMEM medium and placed in the first well. Compounds were tested in one plate and every compound was diluted over two rows (23 concentrations), leaving the last well of every dilution as a negative control having 100 μL HOMEM medium. Next, 100 μL of L. mexicana culture at a density of 2 × 10^6 cells mL^−1 was added into every well in the plate and incubated for 72 h at a temperature of 25 °C after which resazurin sodium salt (Sigma) (20 μL of a solution of 12.5 mg in 100 mL PBS) was added and the plate was incubated under the same conditions for a further 48 h. Fluorescence was measured in a FLUOstar OPTIMA plate reader (BMG Labtech, Germany), at a wavelength of 544 nm for excitation and 620 nm for emission. The EC50 values and fluorescence data were determined and plotted by the GraphPad Prism 8 Software using an equation for a sigmoid curve with variable slope. Pentamidine was used as positive control and every experiment was performed 3–4 times independently.
# [3] = test system: L. mexicana Cas9 promastigotes; test: Alamar blue drug sensitivity assay, L. mexicana Cas9 promastigotes; type: cell-based, Leishmania mexicana; conditions: Leishmania mexicana, 120 h, 72 h + 48 h resazurin, at least 3 independent determinations, read-out: EC50 (µM) AVG ± SEM, Cas9
# Description: as §1, §2
# [4] = test system: L. mexicana Cas9^ΔNT1 promastigotes; test: Alamar blue drug sensitivity assay, L. mexicana Cas9^ΔNT1 promastigotes; type: cell-based, Leishmania mexicana; conditions: EC50 Cas9^ΔNT1 relative to L. mexicana Cas9
# Description: as §1, §2
# TcrNT2 [5] = target: T1, TcrNT2; conditions: cited from earlier work; for Ki: earlier characterization, TcrNT2 expressed in T. brucei, ref Campagnaro et al. [30], read-out: Ki on thymidine transport by TcrNT2
# [6] = calculated from Km or Ki at 25 °C
# [7] = read-out: Ki on the transport of [^3H]-thymidine by TcrNT2
# [8] = TcrNT2 in L. mexicana Cas9^ΔNT1, […] [^3H]-thymidine, IC50 converted to Ki (Cheng-Prusoff), read-out: Ki on the transport of [^3H]-thymidine by TcrNT2
# T1 sequence (Q4DHG0 entry or part of it): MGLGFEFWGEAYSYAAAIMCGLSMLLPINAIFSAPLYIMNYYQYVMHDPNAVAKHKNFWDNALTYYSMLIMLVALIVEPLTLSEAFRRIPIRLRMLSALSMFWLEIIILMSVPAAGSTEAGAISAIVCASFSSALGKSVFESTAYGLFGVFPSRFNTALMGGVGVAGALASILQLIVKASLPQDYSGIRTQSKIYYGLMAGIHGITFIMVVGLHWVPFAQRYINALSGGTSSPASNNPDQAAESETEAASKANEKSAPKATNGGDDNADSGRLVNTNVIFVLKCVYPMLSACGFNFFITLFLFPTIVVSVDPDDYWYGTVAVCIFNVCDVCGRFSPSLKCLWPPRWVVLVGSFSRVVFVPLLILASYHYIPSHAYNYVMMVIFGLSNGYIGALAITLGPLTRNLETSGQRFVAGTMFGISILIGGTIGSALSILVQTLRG
SMILES,RF vs. ΔNT1 (resistance factor) [2],EC50 [3] [µM],RF vs. Cas9 (resistance factor) [4],also measured
Cc1cn([C@H]2C[C@H](O)[C@@H](CO)O2)c(=O)[nH]c1=S [4-thiothymidine],,,,ΔG° (Gibbs free energy of interaction) (TcrNT2 [1]; [6]): -7.58 kcal/mol; Ki (TcrNT2 [1]; [7]): 2.79 ± 0.11 µM
C[C@H]1O[C@@H](n2ccc(=O)[nH]c2=O)[C@H](O)[C@@H]1O [5′-deoxyuridine],,,,"δ(ΔG°), pairwise comparison with uridine (TcrNT2 [1]): -1.05 kcal/mol; Ki (TcrNT2 [1]; [7]): 1020 ± 57 µM"
Cc1ncnc2c1c(-c1ccc(Cl)cc1)cn2[C@@H]1O[C@H](CO)[C@@H](O)[C@H]1O [CL4501],2.2,~100,0.84,
Nc1ncnc2c1c(Br)cn2[C@@H]1O[C@H](CO)C[C@H]1O [FH7429-UP],2.27,8 ± 0.8,1.17,
"Nc1ncnc2c1c(F)cn2[C@@H]1O[C@H](CO)[C@@H](F)[C@H]1O [JB588, 7-F,3′-F-tubercidin]",2.15,0.51 ± 0.093,17.3,
C#Cc1cn([C@@H]2O[C@H](CO)[C@@H](O)[C@H]2O)c2ncnc(N)c12 [FH3143],3.11,0.12 ± 0.021,7.74,
O=c1ccn([C@@H]2O[C@H](CO)[C@@H](O)[C@H]2O)c(=O)[nH]1 [Uridine],,,,"fold lower affinity than thymidine (TcrNT2 [5]; TcrNT2 expressed in T. b. brucei, ref [30]): 300 fold; ΔG° (Gibbs free energy of interaction) (TcrNT2 [1]; [6]): -5.14 kcal/mol; δ(ΔG°) with respect to ΔG° of thymidine (TcrNT2 [1]): -3.85 kcal/mol; δ(ΔG°) with respect to ΔG° of thymidine (TcrNT2 [1]; listed as uridine): 3.85 kcal/mol; δ(ΔG°), pairwise comparison with 2′-deoxyuridine (TcrNT2 [1]): 2.89 kcal/mol; Ki (TcrNT2 [1]; [7]): 172 ± 8 µM"
Nc1ncnc2c1c(-c1ccccc1)cn2[C@@H]1O[C@H](CO)C[C@H]1O [FH8480],,> 500,,
"Cc1cn([C@@H]2O[C@H](CO)[C@@H](O)[C@H]2O)c(=O)[nH]c1=O [5-Me-uridine, 5-methyluridine]",,,,"ΔG° (Gibbs free energy of interaction) (TcrNT2 [1]; [6]): -6.21 kcal/mol; δ(ΔG°) with respect to ΔG° of thymidine (TcrNT2 [1]): -2.77 kcal/mol; δ(ΔG°) with respect to ΔG° of thymidine (TcrNT2 [1]; listed as 5-Me-Urd): 2.77 kcal/mol; δ(ΔG°) with respect to ΔG° of thymidine (TcrNT2 [1]; listed as 5-methyluridine): 2.765 kcal/mol; δ(ΔG°), pairwise comparison with uridine (TcrNT2 [1]): -1.08 kcal/mol; Ki (TcrNT2 [1]; [7]): 28 ± 0.4 µM"
O=c1ccn([C@H]2C[C@H](O)[C@@H](CO)O2)c(=O)[nH]1 [2′-deoxyuridine],,,,Ki (TcrNT2 [5]): 1.11 ± 0.1 µM; ΔG° (Gibbs free energy of interaction) (TcrNT2 [1]; [6]): -8.03 kcal/mol; δ(ΔG°) with respect to ΔG° of thymidine (TcrNT2 [1]): -0.954 kcal/mol; Ki (TcrNT2 [1]; [7]): 1.31 ± 0.002 µM
"Nc1ncnc2c1c(I)cn2[C@@H]1O[C@H](CO)[C@@H](F)[C@H]1O [JB526, 7-I,3′-F-tubercidin]",11.6,~100,~0.84,
N=C(N)c1ccc(OCCCCCOc2ccc(C(=N)N)cc2)cc1 [Pentamidine],1.11,0.87 ± 0.104,1.43,
O=c1[nH]c(=O)n([C@H]2C[C@H](O)[C@@H](CO)O2)cc1I [5-I-2′-deoxyuridine],,,,"Ki (TcrNT2 [1]; [8]): 0.19 ± 0.04 µM; ΔG° (Gibbs free energy of interaction) (TcrNT2 [1]; [6]): -9.15 kcal/mol; δ(ΔG°), pairwise comparison with 2′-deoxyuridine (TcrNT2 [1]): 1.14 kcal/mol; δ(ΔG°), pairwise comparison with 2′-deoxyuridine (TcrNT2 [1]; listed as 5-I-2′-dUrd): -1.15 kcal/mol"
Cc1cn([C@H]2C[C@H](O)[C@@H](CO)O2)c(=S)[nH]c1=O [2-thiothymidine],,,,Ki (TcrNT2 [1]): 3.38 ± 0.26 µM; ΔG° (Gibbs free energy of interaction) (TcrNT2 [1]): -7.46 kcal/mol
Nc1ncnc2c1c(Br)nn2[C@@H]1O[C@H](CO)[C@@H](O)[C@H]1O [JBMAM021],0.97,3.8 ± 0.66,79.9,
"Nc1ncnc2c1c(C(F)(F)F)cn2[C@@H]1O[C@H](CO)[C@@H](O)[C@H]1O [FH6367, 7-(trifluoromethyl)-tubercidin]",1.91,1.42 ± 0.177,1.44,
CNc1ncnc2c1ccn2[C@@H]1O[C@H](CO)[C@@H](O)[C@H]1O [CL5564],>5.6,> 100,,
"Nc1ncnc2c1c(F)cn2[C@@H]1O[C@H](CO)[C@@H](O)[C@H]1O [FH3167, 7-F-tubercidin]",41.9,0.22 ± 0.09,40.7,
"Nc1ncnc2c1c(-c1ccc(Cl)c(Cl)c1)cn2[C@@H]1O[C@H](CO)C[C@H]1O [FH8513, 7-(3,4-dichlorophenyl)-3′-deoxytubercidin]",3,~100,0.94,
Nc1ccn([C@@H]2O[C@H](CO)[C@@H](O)[C@H]2O)c(=O)n1 [cytidine],,,,Ki (TcrNT2 [5]): 728 ± 71 µM
"Nc1ncnc2c1cnn2[C@@H]1O[C@H](CO)[C@@H](O)[C@H]1O [JBMAM030, aminopurinol riboside]",0.94,7.81 ± 0.9,39.8,
O=c1[nH]c(=O)n([C@@H]2O[C@H](CO)[C@@H](O)[C@H]2O)cc1Br [5-Br-uridine],,,,"Ki (TcrNT2 [1]; [8]): 30.1 ± 1.8 µM; ΔG° (Gibbs free energy of interaction) (TcrNT2 [1]; [6]): -6.17 kcal/mol; δ(ΔG°) with respect to ΔG° of thymidine (TcrNT2 [1]): -2.82 kcal/mol; δ(ΔG°), pairwise comparison with uridine (TcrNT2 [1]): -1.03 kcal/mol"
Cc1cn([C@H]2CC[C@@H](CO)O2)c(=O)[nH]c1=O [3′-deoxythymidine],,,,ΔG° (Gibbs free energy of interaction) (TcrNT2 [1]; [6]): -4.76 kcal/mol; δ(ΔG°) with respect to ΔG° of thymidine (TcrNT2 [1]): -4.21 kcal/mol; Ki (TcrNT2 [1]; [7]): 322 ± 22.6 µM
"Nc1ncnc2c1c(F)cn2[C@@H]1O[C@H](CO)C[C@H]1O [FH8517, 7-F-3′-deoxytubercidin]",1.28,3.18 ± 0.78,3.93,
Cc1cn([C@H]2C[C@H](O)[C@@H](C)O2)c(=O)[nH]c1=O [5′-deoxythymidine],,,,ΔG° (Gibbs free energy of interaction) (TcrNT2 [1]; [6]): -7.72 kcal/mol; δ(ΔG°) with respect to ΔG° of thymidine (TcrNT2 [1]): -1.26 kcal/mol; Ki (TcrNT2 [1]; [7]): 2.2 ± 0.03 µM
C#Cc1cn([C@@H]2O[C@H](CO)C[C@H]2O)c2ncnc(N)c12 [FH8505],1.47,47.2 ± 1.47,1.13,
Nc1ncnc2c1c(-c1ccc(Cl)cc1)nn2[C@@H]1O[C@H](CO)[C@@H](O)[C@H]1O [JB602],,> 500,,
Nc1ncnc2c1c(I)cn2[C@@H]1O[C@H](CO)[C@@H](O)[C@H]1O [FH3141],7.83,1.08 ± 0.202,13.4,

# — paper PMC9693223 (Molecules, 2022)
